Data on two compounds can be found in PMC3900240 (Biochimica et biophysica acta, 2013).

The target of the assay is T1, SoArsAB (Sporomusa ovata, UniProt F6MZ55+F6MZ56).
T1 sequence (F6MZ55 5-350 limits assumed): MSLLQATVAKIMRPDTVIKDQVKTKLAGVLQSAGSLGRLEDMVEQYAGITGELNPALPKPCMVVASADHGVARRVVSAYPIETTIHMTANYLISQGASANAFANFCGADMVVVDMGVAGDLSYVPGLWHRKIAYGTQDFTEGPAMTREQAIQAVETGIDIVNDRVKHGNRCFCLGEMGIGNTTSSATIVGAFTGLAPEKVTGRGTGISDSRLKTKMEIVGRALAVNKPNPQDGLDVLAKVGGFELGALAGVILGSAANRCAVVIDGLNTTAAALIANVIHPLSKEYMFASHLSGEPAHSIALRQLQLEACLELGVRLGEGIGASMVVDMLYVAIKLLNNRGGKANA
T1 sequence (F6MZ56 1-350): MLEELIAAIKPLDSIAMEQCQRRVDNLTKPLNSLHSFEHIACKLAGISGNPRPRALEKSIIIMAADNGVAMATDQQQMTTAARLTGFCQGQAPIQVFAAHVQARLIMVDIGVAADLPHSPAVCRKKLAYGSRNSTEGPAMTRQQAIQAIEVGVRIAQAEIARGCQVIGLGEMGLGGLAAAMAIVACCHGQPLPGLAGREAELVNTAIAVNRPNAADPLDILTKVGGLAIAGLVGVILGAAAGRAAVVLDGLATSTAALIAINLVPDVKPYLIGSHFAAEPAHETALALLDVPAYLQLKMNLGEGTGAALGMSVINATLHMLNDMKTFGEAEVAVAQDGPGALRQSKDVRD
The assay can be described thus: HPLC product formation. The class given is biochemical. The conditions noted are these: pH 10, 37 °C, 6 h.

In the case of `O=C([O-])c1ccc[n+]([C@@H]2O[C@H](COP(=O)(O)O)[C@@H](O)[C@H]2O)c1` [NaMN, nicotinate mononucleotide], the HPLC product formation result (3 mM p-cresol) is “using SeCobT^WT, SeCobT^S80Y,Q88M,L175M or SoArsAB with NaMN and p-cresol”.

As to `Cc1ccc(O)cc1` [p-cresol], where the note is “3 mM NaMN”, the HPLC product formation entry is “using SeCobT^WT, SeCobT^S80Y,Q88M,L175M or SoArsAB with NaMN and p-cresol”.
